≈ marks a conversion by molar mass, not a printed value.
Columns and labels:
[1] = test system: Human herpesvirus 3 strain Oka vaccine; experiment: Antiviral activity against Human herpesvirus 3 strain Oka vaccine OKA 07-1 (Varicella zoster virus ) infected in human HEL cells assessed as inhibition of virus-induced cytopathicity; format: functional, organism-based; details: Human alphaherpesvirus 3, HEL
[2] = test system: Respiratory syncytial virus; experiment: Antiviral activity against Respiratory syncytial virus infected human HeLa cells assessed as inhibition of virus-induced cytopathicity by microscopy; format: functional, organism-based
Human alphaherpesvirus 1 [3] = experiment: Antiviral activity against Human herpesvirus 1 strain KOS infected human HEL cells assessed as inhibition of virus-induced cytopathicity by microscopy by microscopy; format: functional, organism-based; details: Human alphaherpesvirus 1, KOS
Aspergillus niger = experiment: Antimicrobial activity against Aspergillus niger after 7 days by tube dilution method; format: functional
Vaccinia virus = experiment: Antiviral activity against Vaccinia virus infected human HEL cells assessed as inhibition of virus-induced cytopathicity by microscopy; format: functional, organism-based; details: Orthopoxvirus vaccinia
Candida albicans = experiment: Antimicrobial activity against Candida albicans after 48 hr by tube dilution method; format: functional
[4] = Cytotoxicity against Homo sapiens (human) HeLa cells assessed as alteration in cell morphology by microscopy; format: cell-based; details: read-out: MTC
[5] = Cytotoxicity against Homo sapiens (human) MT4 cells after 4 days by MTT assay; format: cell-based
Human alphaherpesvirus 2 = experiment: Antiviral activity against Human herpesvirus 2 strain G infected human HEL cells assessed as inhibition of virus-induced cytopathicity by microscopy; format: functional, organism-based; details: Human alphaherpesvirus 2, strain G
[6] = test system: Human immunodeficiency virus 1; experiment: Antiviral activity against Human immunodeficiency virus 1 IIIB infected MT4 cells assessed as inhibition of virus-induced cytopathic effect after 4 days by MTT assay; format: functional, organism-based; details: MT4, 96 h
[7] = Cytotoxicity against Homo sapiens (human) HEL cells assessed as alteration in cell morphology by microscopy; format: cell-based; details: for MCC: read-out: MTC
Bacillus subtilis = experiment: Antimicrobial activity against Bacillus subtilis after 24 hr by tube dilution method; format: functional
Human respirovirus 3 = experiment: Antiviral activity against Human parainfluenza virus 3 infected Vero cells assessed as inhibition of virus-induced cytopathicity by microscopy; format: functional, organism-based; details: Human respirovirus 3, Vero
[8] = test system: Human herpesvirus 5 strain AD169; experiment: Antiviral activity against Human herpesvirus 5 strain AD169 Davis infected human HEL cells assessed as inhibition of virus-induced cytopathicity by microscopy; format: functional, organism-based; details: Human betaherpesvirus 5, Davis
[9] = test system: Human immunodeficiency virus 2; experiment: Antiviral activity against Human immunodeficiency virus type 2 (ISOLATE ROD) infected MT4 cells assessed as inhibition of virus-induced cytopathic effect after 4 days by MTT assay; format: functional, organism-based; details: Human immunodeficiency virus 2, ISOLATE ROD, MT4, 96 h
[10] = test system: Vesicular stomatitis virus; experiment: Antiviral activity against Vesicular stomatitis virus infected human HeLa cells assessed as inhibition of virus-induced cytopathicity by microscopy; format: functional, organism-based
Staphylococcus aureus = experiment: Antimicrobial activity against Staphylococcus aureus after 24 hr by tube dilution method; format: functional
Human alphaherpesvirus 1 [11] = experiment: Antiviral activity against TK(-) aciclovir-resistant Human herpesvirus 1 strain KOS infected in human HEL cells assessed as inhibition of virus-induced cytopathicity; format: functional, organism-based; details: Human alphaherpesvirus 1, KOS
Sindbis virus = experiment: Antiviral activity against Sindbis virus infected Vero cells assessed as inhibition of virus-induced cytopathicity; format: functional, organism-based
Punta Toro virus = experiment: Antiviral activity against Punta Toro virus infected Vero cells assessed as inhibition of virus-induced cytopathicity; format: functional, organism-based
HEL = experiment: Cytostatic against Homo sapiens (human) HEL cells assessed as alteration in cell morphology by microscopy; format: ADME, cell-based
[12] = test system: Mammalian orthoreovirus 1; experiment: Antiviral activity against Mammalian orthoreovirus 1 infected Vero cells assessed as inhibition of virus-induced cytopathicity by microscopy; format: functional, organism-based; details: Mammalian orthoreovirus 1, Vero
[13] = Cytotoxicity against Chlorocebus aethiops (African green monkey) Vero cells assessed as alteration in cell morphology by microscopy; format: cell-based; details: chlorocebus sabaeus, read-out: MTC
Coxsackievirus B4 [14] = experiment: Antiviral activity against Human coxsackievirus B4 infected Vero cells assessed as inhibition of virus-induced cytopathicity; format: functional, organism-based; details: Enterovirus B
Escherichia coli = experiment: Antimicrobial activity against Escherichia coli after 24 hr by tube dilution method; format: functional
Coxsackievirus B4 [15] = experiment: Antiviral activity against Human coxsackievirus B4 infected human HeLa cells assessed as inhibition of virus-induced cytopathicity by microscopy; format: functional, organism-based; details: Enterovirus B

Structure (SMILES) | EC50 [1] | EC50 [2] | EC50 (Human alphaherpesvirus 1 [3]) | -logMIC (Aspergillus niger) | EC50 (Vaccinia virus) | -logMIC (Candida albicans) | MCC [4] | CC50 at 96 h [5] | EC50 (Human alphaherpesvirus 2) | EC50 [6] | CC50 [7] | MCC [7] | -logMIC (Bacillus subtilis) | EC50 (Human respirovirus 3) | EC50 [8] | EC50 [9] | EC50 [10] | -logMIC (Staphylococcus aureus) | Activity (HEL) | -logMIC (Escherichia coli) | other results
O=C(NN=C1CCCCCC1)c1ccncc1 [N'-CYCLOHEPTYLIDENEISONICOTINOHYDRAZIDE] | > 100 µg/mL | > 100 µg/mL | > 100 µg/mL | 1.66 | > 100 µg/mL | 1.66 | > 100 µg/mL | 86 µg/mL (≈ 372 µM) | > 100 µg/mL | > 86 µg/mL | > 100 µg/mL | > 100 µg/mL | 1.66 | > 100 µg/mL | > 100 µg/mL | > 86 µg/mL | > 100 µg/mL | 1.66 | Toxic | 1.36 | EC50 (Human alphaherpesvirus 1 [11]): > 100 µg/mL; EC50 (Sindbis virus): > 100 µg/mL; EC50 (Punta Toro virus): > 100 µg/mL; EC50 [12]: > 100 µg/mL; MCC [13]: > 100 µg/mL; EC50 (Coxsackievirus B4 [14]): > 100 µg/mL; EC50 (Coxsackievirus B4 [15]): > 100 µg/mL
C/C(=N\NC(=O)c1ccncc1)c1ccc([N+](=O)[O-])cc1 | > 20 µg/mL | > 20 µg/mL | > 100 µg/mL | 2.36 | > 100 µg/mL | 2.36 | 100 µg/mL | 77 µg/mL (≈ 271 µM) | > 100 µg/mL | > 77 µg/mL | 54 µg/mL (≈ 190 µM) | > 100 µg/mL | 2.06 | > 20 µg/mL | > 20 µg/mL | > 77 µg/mL | > 20 µg/mL | 2.06 | Toxic | 2.36 | EC50 (Human alphaherpesvirus 1 [11]): > 100 µg/mL; EC50 (Sindbis virus): > 20 µg/mL; EC50 (Punta Toro virus): > 20 µg/mL; EC50 [12]: > 20 µg/mL; MCC [13]: 100 µg/mL; EC50 (Coxsackievirus B4 [14]): > 20 µg/mL; EC50 (Coxsackievirus B4 [15]): > 20 µg/mL
C/C(=N\NC(=O)c1ccncc1)c1cccc([N+](=O)[O-])c1 | > 4 µg/mL | > 4 µg/mL | > 20 µg/mL | 2.36 | > 20 µg/mL | 2.36 | 20 µg/mL | 63 µg/mL (≈ 222 µM) | > 20 µg/mL | > 63 µg/mL | 13 µg/mL (≈ 45.7 µM) | 100 µg/mL | 2.06 | > 4 µg/mL | > 20 µg/mL | > 63 µg/mL | > 4 µg/mL | 2.06 | Toxic | 2.36 | EC50 (Human alphaherpesvirus 1 [11]): > 20 µg/mL; EC50 (Sindbis virus): > 4 µg/mL; EC50 (Punta Toro virus): > 4 µg/mL; EC50 [12]: > 4 µg/mL; MCC [13]: 20 µg/mL; EC50 (Coxsackievirus B4 [14]): > 4 µg/mL; EC50 (Coxsackievirus B4 [15]): > 4 µg/mL
C/C(=N\NC(=O)c1ccncc1)c1ccc(O)cc1O | 8 µg/mL (≈ 29.5 µM) | > 0.8 µg/mL | 2.5 µg/mL (≈ 9.22 µM) | 2.34 | 2.5 µg/mL (≈ 9.22 µM) | 2.64 | 4 µg/mL | 9.7 µg/mL (≈ 35.8 µM) | 2 µg/mL (≈ 7.37 µM) | > 9.7 µg/mL | 2.1 µg/mL (≈ 7.74 µM) | > 100 µg/mL | 2.04 | > 4 µg/mL | > 4 µg/mL | > 9.7 µg/mL | > 0.8 µg/mL | 2.04 | Toxic | 2.04 | EC50 (Human alphaherpesvirus 1 [11]): 2 µg/mL (≈ 7.37 µM); EC50 (Sindbis virus): > 4 µg/mL; EC50 (Punta Toro virus): > 4 µg/mL; EC50 [12]: > 4 µg/mL; MCC [13]: 20 µg/mL; EC50 (Coxsackievirus B4 [14]): > 4 µg/mL; EC50 (Coxsackievirus B4 [15]): > 0.8 µg/mL
C/C(=N\NC(=O)c1ccncc1)c1ccc(Br)cc1 | > 20 µg/mL | > 4 µg/mL | > 20 µg/mL | 2.41 | > 20 µg/mL | 2.41 | 20 µg/mL | 43 µg/mL (≈ 135 µM) | > 20 µg/mL | > 43 µg/mL | 51 µg/mL (≈ 160 µM) | ≥ 20 µg/mL | 2.1 | > 20 µg/mL | > 20 µg/mL | > 43 µg/mL | > 4 µg/mL | 2.1 | Toxic | 2.41 | EC50 (Human alphaherpesvirus 1 [11]): > 20 µg/mL; EC50 (Sindbis virus): > 20 µg/mL; EC50 (Punta Toro virus): > 20 µg/mL; EC50 [12]: > 20 µg/mL; MCC [13]: ≥ 20 µg/mL; EC50 (Coxsackievirus B4 [14]): > 20 µg/mL; EC50 (Coxsackievirus B4 [15]): > 4 µg/mL
COc1ccc(/C(C)=N/NC(=O)c2ccncc2)c(OC)c1 | > 20 µg/mL | > 4 µg/mL | > 100 µg/mL | 2.38 | > 100 µg/mL | 2.68 | 20 µg/mL | 12 µg/mL (≈ 40.1 µM) | > 100 µg/mL | > 12 µg/mL | 10 µg/mL (≈ 33.4 µM) | > 100 µg/mL | 2.38 | > 20 µg/mL | > 20 µg/mL | > 12 µg/mL | > 4 µg/mL | 2.38 | Toxic | 2.08 | EC50 (Human alphaherpesvirus 1 [11]): > 100 µg/mL; EC50 (Sindbis virus): > 20 µg/mL; EC50 (Punta Toro virus): > 20 µg/mL; EC50 [12]: > 20 µg/mL; MCC [13]: 100 µg/mL; EC50 (Coxsackievirus B4 [14]): > 20 µg/mL; EC50 (Coxsackievirus B4 [15]): > 4 µg/mL
Cc1ccnc2c1NC(=O)c1cccnc1N2C1CC1 [NEVIRAPINE] | – | – | – | – | – | – | – | > 4 µg/mL | – | – | – | – | – | – | – | > 4 µg/mL | – | – | – | – | –
CCn1cc(C(=O)O)c(=O)c2cc(F)c(N3CCNCC3)cc21 [NORFLOXACIN] | – | – | – | – | – | – | – | – | – | – | – | – | 2.61 | – | – | – | – | 2.61 | – | 2.61 | –
NNC(=O)c1ccncc1 [ISONIAZID] | – | – | – | 2.04 | – | 2.34 | – | – | – | – | – | – | 1.74 | – | – | – | – | 2.04 | – | 1.74 | –
Cc1cn([C@H]2C[C@H](N=[N+]=[N-])[C@@H](CO)O2)c(=O)[nH]c1=O [ZIDOVUDINE] | – | – | – | – | – | – | – | > 25 µg/mL | – | – | – | – | – | – | – | – | – | – | – | – | –
OC(Cn1cncn1)(Cn1cncn1)c1ccc(F)cc1F [FLUCONAZOLE] | – | – | – | 2.64 | – | 2.64 | – | – | – | – | – | – | – | – | – | – | – | – | – | – | –
C/C(=N\NC(=O)c1ccncc1)c1ccccc1Br | – | – | – | 2.41 | – | 2.71 | – | – | – | – | – | – | 2.71 | – | – | – | – | 2.41 | Toxic | 2.41 | –
